Source: US12569502B2, “Use of bile acids and derivatives thereof in preparation of GPR39 agonist” (PEKING UNIVERSITY, priority 2019, dated 2026)
Residue numbers refer to the chain shown, from its start. Where two headings read alike, the source gives them in different places.

Assays:
Assay type in all cases: cell-based
[1] = target: T1, murine-derived wild-type (WT) GPR39 (Mus musculus, UniProt Q5U431); test: Calcium imaging on 293T cells transiently transfected with wild-type GPR39; details: transiently transfected HEK293T cells
T1 construct: 3HA (N); P2A-mCherry (C); expressed in transfected cells; host or cells: HEK293T, transient (Lipofectamine 3000)
T1 sequence (Q5U431 1-456): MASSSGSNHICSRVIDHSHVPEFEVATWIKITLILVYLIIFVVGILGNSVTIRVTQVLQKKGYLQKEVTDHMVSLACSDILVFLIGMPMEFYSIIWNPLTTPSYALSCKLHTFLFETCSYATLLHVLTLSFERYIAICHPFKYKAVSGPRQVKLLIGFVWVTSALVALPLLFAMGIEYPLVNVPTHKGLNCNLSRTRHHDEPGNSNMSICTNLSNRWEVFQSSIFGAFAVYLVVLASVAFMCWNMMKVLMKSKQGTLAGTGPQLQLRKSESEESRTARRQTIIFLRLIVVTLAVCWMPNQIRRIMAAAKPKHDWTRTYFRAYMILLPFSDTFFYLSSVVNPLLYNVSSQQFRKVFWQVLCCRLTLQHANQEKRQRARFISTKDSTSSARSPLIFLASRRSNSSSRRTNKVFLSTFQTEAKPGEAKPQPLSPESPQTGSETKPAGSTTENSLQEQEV
Description: (§1) In the present application, the bile acid and/or derivative thereof is capable of activating the GPR39 independent of a zinc ion binding site. For example, in some embodiments, murine-derived wild-type (WT) GPR39 or zinc ion binding site mutant (H17A and H19A) GPR39 are transiently expressed in 293T cells by using lipofectamine3000 transfection kit. The activation effect of LCAS on the wild-type (WT) and mutants (H17A and H19A) is detected by calcium imaging.
HEK293T cells were seeded in a PDL-coated 96-well plate (coring Co.) at an appropriate density (about 3×10^4 cells/well) and cultured under conditions of 37° C. and 5% CO2. 24 h after seeding, when the cell density reached 60%-70%, Lipofectamine 3000 (Invitrogen) was used for transfection, in which the concentration of plasmid transfection was 50 ng per well. […] 2) Zinc ions […] on the activation of mutants H17A and H19A of GPR39 by LCAS.

[2] = target: T2, zinc ion binding site mutant (H17A and H19A) GPR39 (Mus musculus, UniProt Q5U431, H17A/H19A); test: Calcium imaging on 293T cells transiently transfected with zinc ion binding site mutant GPR39; details: transiently transfected HEK293T cells
T2 construct: 3HA (N); P2A-mCherry (C); expressed in transfected cells; host or cells: HEK293T, transient (Lipofectamine 3000)
T2 sequence (Q5U431 1-456 H17A/H19A): T1 sequence (Q5U431 1-456) with H17A, H19A
From the text: as §1
The pCMV6-3HA-mGPR39-P2A-mCherry vector carrying murine-derived GPR39 gene and having a total length of about 7 Kbp was selected as the PCR template, and a site-directed mutant vector was obtained by PCR site-directed mutagenesis. With the mutation site as the centre, a forward primer m39-H17A-F and a reverse primer m39-H17A-R were designed by extending approximately 15 bp each way, which sequences were respectively shown in Table 3 below. At 1 bp upstream of the mutation site, a 15 bp complementary sequence to the forward primer was designed, and the length of the reverse primer was designed to maintain the annealing temperature of the primer at 60° C. A high-fidelity DNA polymerase (Phanta Max Super-fidelity DNA polymerase, Vazyme) was used for site-directed PCR. 5 μL cutsmart buffer (NEB) and 1 μL restriction endonuclease DpnI (NEB) were added into the PCR product for overnight digestion, and then 10 μL of the product was transferred into 50 μL DH5α for heat shock transformation. The corresponding resistant solid LB medium was selected to coat and culture the product and enable it grow overnight at 37° C. A single colony was picked for inoculation, and the bacteria were shaken to extract the plasmid which was verified by sequencing. A monoclonal vector which had been sequenced to be correct was selected and marked as pCMV6-3HA-mGPR39(H17A&H19A)-P2A-mCherry, which structure was shown in FIG. 5.
HEK293T cells were seeded in a PDL-coated 96-well plate (coring Co.) at an appropriate density (about 3×10^4 cells/well) and cultured under conditions of 37° C. and 5% CO2. […]

[3] = target: T3, human GPR39 receptors on human GPR39-2 cell lines (Homo sapiens, UniProt O43194); test: FLIPR calcium imaging on human GPR39-2 cell line stably expressing human GPR39; details: for EC50: human GPR39-2 cells
T3 construct: P2A-mCherry (C)
T3 sequence (O43194 1-453): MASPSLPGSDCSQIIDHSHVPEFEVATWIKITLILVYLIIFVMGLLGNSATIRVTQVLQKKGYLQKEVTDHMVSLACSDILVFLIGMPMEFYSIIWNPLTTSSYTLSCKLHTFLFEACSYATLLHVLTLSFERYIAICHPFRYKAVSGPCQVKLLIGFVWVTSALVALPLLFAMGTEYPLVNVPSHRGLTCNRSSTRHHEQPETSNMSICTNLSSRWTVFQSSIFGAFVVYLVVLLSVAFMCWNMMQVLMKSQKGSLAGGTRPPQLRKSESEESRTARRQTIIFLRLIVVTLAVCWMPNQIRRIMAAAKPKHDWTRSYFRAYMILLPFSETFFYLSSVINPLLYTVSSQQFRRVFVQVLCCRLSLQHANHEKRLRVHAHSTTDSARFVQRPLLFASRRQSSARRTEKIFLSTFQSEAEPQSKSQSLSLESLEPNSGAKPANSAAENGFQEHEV
From the text: The human GPR39 cDNA vector was purchased from WZ Biosciences Inc., Shandong. It was cloned onto a lentiviral vector PLVXK-hGPR39-P2A-mCherry (FIG. 10) through PCR amplification using primers hGPR39-F (which sequence was shown as set forth in SEQshown as set forth in SEQ ID NO: 15) and hGPR39-R (which sequence was shown as set forth in SEQ shown as set forth in SEQ ID NO: 16), in which the sequence of the target gene human GPR39 cDNA was shown as set forth in SEQ shown as set forth in SEQ ID NO: 14. A cell line human GPR39-2 stably expressing human GPR39 gene was constructed according to the method of Example 1.

Work on `C[C@H](CCC(=O)O)[C@H]1CC[C@H]2[C@@H]3CC[C@@H]4C[C@H](OS(=O)(=O)O)CC[C@]4(C)[C@H]3CC[C@]12C` [LCAS] yielded an EC50 ([1]; + 4 μM zinc ions) of 5.2 ± 0.7 µM, an EC50 ([1]; agonist alone) of 33.1 ± 5.1 µM and an EC50 ([2]; + 4 μM zinc ions) of 8.7 ± 0.8 µM. The EC50 ([2]; agonist alone) was 24 ± 0.8 µM, the EC50 ([3]; EC50 Agonist + 4 μM zinc ions, 4 μM zinc ions) was 0.97 ± 0.3 µM and the “intracellular calcium signal response of human GPR39-2” value ([3]; FIG. 9) was “capable of inducing intracellular calcium signal response”.

With `[Zn+2]` [Zinc ions, reference compound] the EC50 ([1]; agonist alone) was 12 ± 5.3 µM, the EC50 ([2]; agonist alone) was > 100 µM and the EC50 ([3]; no added zinc ions, read-out: EC50 Only agonist) was 12 ± 2.8 µM.
